Values after ≈ are worked out from the molar mass of the structure shown. Like-named read-outs stand apart in the source and are kept apart here.
Columns and labels:
[1] = target: T1, full-length beta-Catenin (Uniprot ID P35222) (Homo sapiens, UniProt P35222); assay: Fluorescence polarization IC50 (beta-catenin / 5FAM-TCF4 10-53 competition); format: binding; details: read-out: beta-Catenin FP IC50
T1 construct: 10 nM full-length beta-Catenin (Uniprot ID P35222)
T1 sequence (P35222 1-781): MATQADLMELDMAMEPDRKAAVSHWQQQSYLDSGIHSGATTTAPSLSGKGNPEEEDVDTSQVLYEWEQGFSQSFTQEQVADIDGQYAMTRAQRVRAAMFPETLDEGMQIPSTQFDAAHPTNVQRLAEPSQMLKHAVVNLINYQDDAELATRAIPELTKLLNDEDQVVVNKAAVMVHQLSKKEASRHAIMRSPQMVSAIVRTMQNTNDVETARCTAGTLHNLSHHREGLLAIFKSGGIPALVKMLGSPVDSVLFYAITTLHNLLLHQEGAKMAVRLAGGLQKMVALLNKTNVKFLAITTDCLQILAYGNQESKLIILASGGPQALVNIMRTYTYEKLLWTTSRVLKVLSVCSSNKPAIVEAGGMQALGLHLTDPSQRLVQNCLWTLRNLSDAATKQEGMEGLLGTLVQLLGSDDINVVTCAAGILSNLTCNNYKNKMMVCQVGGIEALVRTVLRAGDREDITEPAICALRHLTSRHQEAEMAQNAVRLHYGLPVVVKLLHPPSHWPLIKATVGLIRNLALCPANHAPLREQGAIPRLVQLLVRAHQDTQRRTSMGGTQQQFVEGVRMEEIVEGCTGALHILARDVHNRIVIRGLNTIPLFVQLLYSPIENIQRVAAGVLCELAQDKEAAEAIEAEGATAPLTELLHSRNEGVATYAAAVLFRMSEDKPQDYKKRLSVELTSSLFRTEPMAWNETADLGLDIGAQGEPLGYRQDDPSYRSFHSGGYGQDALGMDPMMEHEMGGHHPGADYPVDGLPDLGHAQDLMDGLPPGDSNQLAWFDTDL

[2] = test system: TCF/LEF luciferase Reporter in DLD1 cells; assay: TCF reporter assay (DLD1 TCF/LEF luciferase reporter, Bright-Glo); format: cell-based; details: read-out: DLD1 4% Abs IC50, 4%
Text: Those skilled in the art will appreciate that other suitable reagents may be utilized and various parameters may be adjusted.
DLD1 reporter cell line was generated by using TCF/LEF luciferase Reporter Lentivirus (BPS Bioscience Catalog #79787). Parental DLD1 cells (ATCC@ CCL-221) were transfected with the lentivirus and followed by 3-day puromycin selection. Single clone was selected for Reporter assay.
On Day 1, cultured cells in flasks that are no more than about 60-70% confluent were washed with PBS and typsinized in 3 mL/T75 until cells were free floating. Spin down cells for 5 minutes at 1100RPM. While cells spin, determine the number of plates (3 compounds per plate) needed. After spinning, aspirate the supernatant gently and add 10 mL media (RPMI+4% FBS), and re-suspend and mix the cells gently. Count the cells twice in the cell counter Countess and take average of both the counts, and determine how many cells are needed. After plating cells at 5000 cells/well, seal with aerseal film. 90 uL cells/well. Incubate at 37° C. overnight, tap gently to mix and don't stack plates.
On Day 2, compounds were added. Stock solution was 10 mM. Make the DMSO containing media by adding 36 uL DMSO to 10 mL of media. Make the dilution wells by transferring 100 uL DMSO+Media into rows B-F of a protein LoBind 96-well plate. Row G is empty. Add any extra DMSO+media to row H. Transfer 4 uL of stock solution to Row A. One compound per column. Add 196 uL media to Row A, no DMSO in the media. Concentration of Row A was 200 uM. Mix well and do a 6 pt, 1:2 serial dilution, mix ×10 per transfer and change tips before each transfer. Removed excess volume from final well (row F) and discard. Transfer 10 uL of the compound containing media to cells with a multichannel according to plate maps. Add 60 uL DMSO containing media to the DMSO wells. The edge wells were typically not used in the assay and could be ignored if needed or replaced with PBS, but there typically were liquids in the wells. Cover plates with breathable plate sealer and incubate overnight.
A 96-well plate may be utilized to prepare dilution series for up to 12 compounds, each with several concentrations (e.g., 200, 100, 50, 25, 12.5, 6.25 and 0 uM; can be utilized as 100× depending on final test concentrations).
0 uM is the DMSO control for the whole plate. Edge well filled with 90 uL cells+10 uL DMSO containing media.
On Day 3, luciferase levels were assessed using Bright-Glo (Promega). Equilibrate Bright-Glo to room temperature before addition. 7 mL of mixed Bright-Gbo per plate. Unused Bright-Glo could be store at −80° C. Reconstituted reagent can be stored for up to 1 month at −80° C., or after one freeze-thaw. When ready to read, remove plates from incubator and let sit at room temperature for 15 minutes. Typically stagger taking out plates if reading multiple plates before adding the Bright-Glo. Add 90 uL/well Bright-Glo and shake gently for 3 minutes. Read luminescence on GloMax immediately using ‘BrightGlo’ programs.
Cellular activity was assessed using CTG. Equilibrate CTG reagents to room temperature. Equilibrate plates to room temp, e.g. 15 min. Use same time length for all plates. Add CTG reagent, 25 uL if using undiluted, or 90 uL if diluted 1 to 4. Shake for 2 min to induce cell lysis. Allow plate to incubate at RT for 10 min to stabilize lumine sent signal. Read luminesence using program ‘CellTiter-Glo’. Use Prism to find the Absolute IC50 (AbsIC50=X[50]) of each compound.

[3] = target: T2, beta-catenin/TCF4 engagement (Homo sapiens, UniProt P35222); assay: Nano-BRET target engagement assay (B-cat-Halo & TCF4-Luc in HEK293 cells); format: cell-based; details: read-out: NanoBRET Abs IC50
T2 construct: expressed in transfected cells; host or cells: HEK293
T2 sequence (P35222 1-781): T1 sequence (P35222 1-781)

Solubility in PBS = format: physicochemical; details: Solubility (uM)
Method in brief: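 Read-out is the HPLC peak area of the supernatant from ultracentrifuged PBS solution, scaled against a 50 μM peptide DMSO injection; value reported as [(PBS area)/(DMSO area)]*50 uM.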

CHI Log D procedure = format: physicochemical; details: pH 7.4, CHI Log D

IC50 ([1]; fluorescence polarization) [nM]	Solubility (Solubility in PBS) [µM]	chromatographic logD (CHI Log D procedure)	IC50 [1] [nM]	IC50 [3] [nM]	SMILES	also measured
13	–	–	–	–	CC(=O)N1CCC[C@]12CC=CCCCC1(CCCC=CCCCOC(=O)N3CC[C@@](C(=O)N[C@@H](Cc4ccsc4)C(=O)N[C@@H](Cc4csc5ccccc45)C(=O)N[C@@H](CO)C(N)=O)(C3)NC(=O)[C@H](CC(C)C)NC(=O)[C@H](Cc3ccccc3)NC(=O)[C@H](C)NC(=O)[C@H](C)NC(=O)[C@H](Cc3ccccc3C(=O)O)NC(=O)[C@H](CC(=O)O)NC1=O)NC(=O)[C@H](CC(C)(C)C)NC(=O)[C@H](CC(=O)O)NC2=O (single isomer, unassigned) [I-1667, Ac-PL3-Asp-Npg-B5-Asp-2COOHF-Ala-Ala-Phe-Leu-PyrS2-3Thi-BztA-Ser-NH2]	IC50 ([2]; DLD1 reporter assay, absolute IC50): 1300 nM; IC50 ([3]; absolute IC50): 5600 nM
–	49 (≈ 97 µg/mL)	2.42	32	26800	CC(=O)N1CCC[C@]12CC=CCCCC1(CCCC=CCCCOC(=O)N3CC[C@@](C(=O)N[C@@H](Cc4ccccc4)C(=O)N[C@@H](Cc4csc5ccccc45)C(=O)N[C@@H](CCC(N)=O)C(N)=O)(C3)NC(=O)[C@H](CO)NC(=O)[C@H](Cc3ccc(C(F)(F)F)cc3)NC(=O)[C@H](C)NC(=O)[C@H](C)NC(=O)[C@H](CC(=O)O)NC(=O)[C@H](CC(=O)O)NC1=O)NC(=O)[C@H](CC1CCCCC1)NC(=O)[C@H](CC(=O)O)NC2=O (stereo partly drawn) [I-1126, Ac-PL3-Asp-Cha-B5-Asp-Asp-Ala-Ala-4F3MeF-Ser-PyrS2-Phe-BztA-Gln-NH2]	–
–	47 (≈ 91.2 µg/mL)	2.18	18	5400	COc1cccc(C[C@@H]2NC(=O)[C@H](C)NC(=O)[C@H](C)NC(=O)[C@H](CC(=O)O)NC(=O)[C@H](CC(=O)O)NC(=O)C3(CCCC=CCCCOC(=O)N4CC[C@@](C(=O)N[C@@H](Cc5ccccc5)C(=O)N[C@@H](Cc5csc6ccccc56)C(=O)N[C@@H](CCC(N)=O)C(N)=O)(C4)NC(=O)[C@H](CC(C)C)NC2=O)CCCC=CC[C@]2(CCCN2C(C)=O)C(=O)N[C@@H](CC(=O)O)C(=O)N[C@@H](CC(C)(C)C)C(=O)N3)c1 (stereo partly drawn) [I-1127, Ac-PL3-Asp-Npg-B5-Asp-Asp-Ala-Ala-3OMeF-Leu-PyrS2-Phe-BztA-Gln-NH2]	–
–	23 (≈ 45.5 µg/mL)	2.3	20	8100	CC(=O)N1CCC[C@]12CC=CCCCC1(CCCC=CCCCOC(=O)N3CC[C@@](C(=O)N[C@@H](Cc4ccccc4)C(=O)N[C@@H](Cc4csc5ccccc45)C(=O)N[C@@H](CCC(N)=O)C(N)=O)(C3)NC(=O)[C@H](CC(C)C)NC(=O)[C@H](Cc3cccc(C(F)(F)F)c3)NC(=O)[C@H](C)NC(=O)[C@H](C)NC(=O)[C@H](CC(=O)O)NC(=O)[C@H](CC(=O)O)NC1=O)NC(=O)[C@H](CC(C)(C)C)NC(=O)[C@H](CC(=O)O)NC2=O (stereo partly drawn) [I-1128, Ac-PL3-Asp-Npg-B5-Asp-Asp-Ala-Ala-3F3MeF-Leu-PyrS2-Phe-BztA-Gln-NH2]	–
133	–	–	–	–	CC(=O)N1CCC[C@]12CC=CCCCC1(CCCC=CCCCOC(=O)N3CC[C@@](C(=O)N[C@@H](Cc4ccsc4)C(=O)N[C@@H](Cc4csc5ccccc45)C(=O)N[C@@H](CCCNC(=N)N)C(N)=O)(C3)NC(=O)[C@H](CC(N)=O)NC(=O)[C@H](Cc3ccccc3)NC(=O)[C@H](C)NC(=O)C(C)(C)NC(=O)[C@H]([C@@H](C)O)NC(=O)[C@H](CC(N)=O)NC1=O)NC(=O)[C@H](CC(C)(C)C)NC(=O)[C@H](CC(=O)O)NC2=O (stereo partly drawn) [I-2413, Ac-PL3-Asp-Npg-B5-Asn-Thr-Aib-Ala-Phe-Asn-PyrS2-3Thi-BztA-Arg-NH2]	IC50 ([2]; DLD1 reporter, absolute IC50): > 20000 nM
734	–	–	–	–	CC(C)C[C@H](NC(=O)[C@]12CCN(C1)C(=O)OCCCCCCCCC1(CCCCCCc3ccccc3C(=O)N3CCC[C@@]3(C)C(=O)N[C@@H](CC(=O)O)C(=O)N1)C(=O)N[C@@H](C)C(=O)N[C@@H](CC(=O)O)C(=O)N[C@@H](CC(=O)O)C(=O)N[C@@H](C)C(=O)N[C@@H](C)C(=O)N[C@@H](Cc1ccccc1)C(=O)N2)C(=O)N[C@@H](Cc1ccsc1)C(=O)N[C@@H](Cc1csc2ccccc12)C(=O)N[C@@H](CCC(N)=O)C(N)=O (stereo partly drawn) [I-2606, BzAm2Allyl-MePro-Asp-B5-Ala-Asp-Asp-Ala-Ala-Phe-PyrS2-Leu-3Thi-BztA-Gln-NH2]	IC50 ([2]; DLD1 reporter): > 20000 nM
904	–	–	–	–	CC(C)C[C@H](NC(=O)[C@]12CCN(C1)C(=O)OCCCCCCCCC1(CCCCCCc3ccccc3C(=O)N3CCC[C@@]3(C)C(=O)N[C@@H](CC(=O)O)C(=O)N1)C(=O)N[C@@H](C)C(=O)N[C@@H](CC(=O)O)C(=O)N[C@@H](Cc1cccc(C(=O)O)c1)C(=O)N[C@@H](C)C(=O)N[C@@H](C)C(=O)N[C@@H](Cc1ccccc1)C(=O)N2)C(=O)N[C@@H](Cc1ccsc1)C(=O)N[C@@H](Cc1csc2ccccc12)C(=O)N[C@@H](CCC(N)=O)C(N)=O (stereo partly drawn) [I-2607, BzAm2Allyl-MePro-Asp-B5-Ala-Asp-3COOHF-Ala-Ala-Phe-PyrS2-Leu-3Thi-BztA-Gln-NH2]	IC50 ([2]; DLD1 reporter): > 20000 nM

SMILES	IC50 ([1]; fluorescence polarization) [nM]	Solubility (Solubility in PBS) [µM]	chromatographic logD (CHI Log D procedure)	IC50 [1] [nM]	IC50 [3] [nM]	also measured
CC(=O)N1CCC[C@]12CC=CCCCC1(CCCC=CCCCOC(=O)N3CC[C@@](C(=O)N[C@@H](Cc4ccccc4C(F)(F)F)C(=O)N[C@@H](Cc4csc5ccccc45)C(=O)N[C@@H](CCC(N)=O)C(N)=O)(C3)NC(=O)[C@H](CC(C)C)NC(=O)[C@H](Cc3ccccc3)NC(=O)[C@H](C)NC(=O)[C@H](C)NC(=O)[C@H](Cc3cccc(C(=O)O)c3)NC(=O)[C@H](CC(=O)O)NC1=O)NC(=O)[C@H](CC(C)(C)C)NC(=O)[C@H](CC(=O)O)NC2=O (stereo partly drawn) [I-1466, Ac-PL3-Asp-Npg-B5-Asp-3COOHF-Ala-Ala-Phe-Leu-PyrS2-2F3MeF-BztA-Gln-NH2]	–	–	–	10	–	IC50 ([2]; DLD1 reporter, absolute IC50): 700 nM

Source: patent US20240116985A1, “STAPLED PEPTIDES AND METHODS THEREOF” (priority 2020, published 2024)
